# Measurements: ChEMBL document CHEMBL5724914, “Linking interpersonal differences in gut microbiota composition and drug biotransformation activity” (2024)
# Test: (§1) The drug is tested on Z-027 corresponding to metagenome with ENA study accession number: PRJEB37062 and ENA sample accession number: ERS12561826 for biotransformation under anaerobic condition. The drug concentrations were measured over 9 timepoints collected between 0 and 24 hours of incubation by liquid-chromatography-coupled mass spectrometry (LC–MS)
# Conditions: 2 µM
# Also: call rule not given here.
row,Bacterial Biotransformation,Structure (SMILES)
1,Compound NOT metabolized,CN1CCC(=C2c3ccccc3CC(=O)c3sccc32)CC1.O=C(O)/C=C/C(=O)O [KETOTIFEN FUMARATE]
2,Compound NOT metabolized,CC[C@H](C)C(=O)O[C@H]1CCC=C2C=C[C@H](C)[C@H](CC[C@@H]3C[C@@H](O)CC(=O)O3)[C@H]21 [MEVASTATIN]

# Test: (§2) The drug is tested on Z-019 corresponding to rat gut metagenome with ENA study accession number: PRJEB37062 and ENA sample accession number: ERS12561818 for biotransformation under anaerobic condition. The drug concentrations were measured over 9 timepoints collected between 0 and 24 hours of incubation by liquid-chromatography-coupled mass spectrometry (LC–MS)
# Conditions: 2 µM
row,Bacterial Biotransformation,Structure (SMILES)
1,Compound NOT metabolized,CN1CCC(=C2c3ccccc3CC(=O)c3sccc32)CC1.O=C(O)/C=C/C(=O)O [KETOTIFEN FUMARATE]
2,Compound NOT metabolized,CC[C@H](C)C(=O)O[C@H]1CCC=C2C=C[C@H](C)[C@H](CC[C@@H]3C[C@@H](O)CC(=O)O3)[C@H]21 [MEVASTATIN]

# Test: as §2, with “on Z-018” for “on Z-019”, “to pig” for “to rat”, “number: ERS12561817” for “number: ERS12561818”
# Conditions: 2 µM
row,Bacterial Biotransformation,Structure (SMILES)
1,Compound NOT metabolized,CN1CCC(=C2c3ccccc3CC(=O)c3sccc32)CC1.O=C(O)/C=C/C(=O)O [KETOTIFEN FUMARATE]
2,Compound metabolized,CC[C@H](C)C(=O)O[C@H]1CCC=C2C=C[C@H](C)[C@H](CC[C@@H]3C[C@@H](O)CC(=O)O3)[C@H]21 [MEVASTATIN]

# Test: as §2, with “Z-014” for “Z-019”, “ERS12561814” for “ERS12561818”
# Conditions: 2 µM
row,Bacterial Biotransformation,Structure (SMILES)
1,Compound NOT metabolized,CN1CCC(=C2c3ccccc3CC(=O)c3sccc32)CC1.O=C(O)/C=C/C(=O)O [KETOTIFEN FUMARATE]
2,Compound NOT metabolized,CC[C@H](C)C(=O)O[C@H]1CCC=C2C=C[C@H](C)[C@H](CC[C@@H]3C[C@@H](O)CC(=O)O3)[C@H]21 [MEVASTATIN]

# Test: as §1, with “Z-010” for “Z-027”, “ERS12561810” for “ERS12561826”
# Conditions: 2 µM
row,Bacterial Biotransformation,Structure (SMILES)
1,Compound NOT metabolized,CN1CCC(=C2c3ccccc3CC(=O)c3sccc32)CC1.O=C(O)/C=C/C(=O)O [KETOTIFEN FUMARATE]
2,Compound NOT metabolized,CC[C@H](C)C(=O)O[C@H]1CCC=C2C=C[C@H](C)[C@H](CC[C@@H]3C[C@@H](O)CC(=O)O3)[C@H]21 [MEVASTATIN]

# Test: as §2, with “on Z-006” for “on Z-019”, “to mouse” for “to rat”, “number: ERS12561806” for “number: ERS12561818”
# Conditions: 2 µM
row,Bacterial Biotransformation,Structure (SMILES)
1,Compound NOT metabolized,CN1CCC(=C2c3ccccc3CC(=O)c3sccc32)CC1.O=C(O)/C=C/C(=O)O [KETOTIFEN FUMARATE]
2,Compound NOT metabolized,CC[C@H](C)C(=O)O[C@H]1CCC=C2C=C[C@H](C)[C@H](CC[C@@H]3C[C@@H](O)CC(=O)O3)[C@H]21 [MEVASTATIN]

# Test: as §1, with “Z-005” for “Z-027”, “ERS12561805” for “ERS12561826”
# Conditions: 2 µM
row,Bacterial Biotransformation,Structure (SMILES)
1,Compound NOT metabolized,CN1CCC(=C2c3ccccc3CC(=O)c3sccc32)CC1.O=C(O)/C=C/C(=O)O [KETOTIFEN FUMARATE]
2,Compound NOT metabolized,CC[C@H](C)C(=O)O[C@H]1CCC=C2C=C[C@H](C)[C@H](CC[C@@H]3C[C@@H](O)CC(=O)O3)[C@H]21 [MEVASTATIN]

# Test: as §1, with “Z-004” for “Z-027”, “ERS12561804” for “ERS12561826”
# Conditions: 2 µM
row,Bacterial Biotransformation,Structure (SMILES)
1,Compound NOT metabolized,CN1CCC(=C2c3ccccc3CC(=O)c3sccc32)CC1.O=C(O)/C=C/C(=O)O [KETOTIFEN FUMARATE]
2,Compound NOT metabolized,CC[C@H](C)C(=O)O[C@H]1CCC=C2C=C[C@H](C)[C@H](CC[C@@H]3C[C@@H](O)CC(=O)O3)[C@H]21 [MEVASTATIN]

# Test: as §2, with “on WLS-370” for “on Z-019”, “to human” for “to rat”, “number: ERS12561793” for “number: ERS12561818”
# Conditions: 2 µM
row,Bacterial Biotransformation,Structure (SMILES)
1,Compound metabolized,CN1CCC(=C2c3ccccc3CC(=O)c3sccc32)CC1.O=C(O)/C=C/C(=O)O [KETOTIFEN FUMARATE]
2,Compound NOT metabolized,CC[C@H](C)C(=O)O[C@H]1CCC=C2C=C[C@H](C)[C@H](CC[C@@H]3C[C@@H](O)CC(=O)O3)[C@H]21 [MEVASTATIN]

# Test: as §2, with “on WLS-310” for “on Z-019”, “to human” for “to rat”, “number: ERS12561785” for “number: ERS12561818”
# Conditions: 2 µM
row,Bacterial Biotransformation,Structure (SMILES)
1,Compound metabolized,CN1CCC(=C2c3ccccc3CC(=O)c3sccc32)CC1.O=C(O)/C=C/C(=O)O [KETOTIFEN FUMARATE]
2,Compound metabolized,CC[C@H](C)C(=O)O[C@H]1CCC=C2C=C[C@H](C)[C@H](CC[C@@H]3C[C@@H](O)CC(=O)O3)[C@H]21 [MEVASTATIN]

# Test: as §2, with “on WLS-086” for “on Z-019”, “to human” for “to rat”, “number: ERS12561752” for “number: ERS12561818”
# Conditions: 2 µM
row,Bacterial Biotransformation,Structure (SMILES)
1,Compound metabolized,CN1CCC(=C2c3ccccc3CC(=O)c3sccc32)CC1.O=C(O)/C=C/C(=O)O [KETOTIFEN FUMARATE]
2,Compound metabolized,CC[C@H](C)C(=O)O[C@H]1CCC=C2C=C[C@H](C)[C@H](CC[C@@H]3C[C@@H](O)CC(=O)O3)[C@H]21 [MEVASTATIN]

# Test: as §2, with “on WLS-010” for “on Z-019”, “to human” for “to rat”, “number: ERS12561743” for “number: ERS12561818”
# Conditions: 2 µM
row,Bacterial Biotransformation,Structure (SMILES)
1,Compound NOT metabolized,CN1CCC(=C2c3ccccc3CC(=O)c3sccc32)CC1.O=C(O)/C=C/C(=O)O [KETOTIFEN FUMARATE]
2,Compound metabolized,CC[C@H](C)C(=O)O[C@H]1CCC=C2C=C[C@H](C)[C@H](CC[C@@H]3C[C@@H](O)CC(=O)O3)[C@H]21 [MEVASTATIN]

# Test: as §2, with “on WLS-007” for “on Z-019”, “to human” for “to rat”, “number: ERS12561742” for “number: ERS12561818”
# Conditions: 2 µM
row,Bacterial Biotransformation,Structure (SMILES)
1,Compound metabolized,CN1CCC(=C2c3ccccc3CC(=O)c3sccc32)CC1.O=C(O)/C=C/C(=O)O [KETOTIFEN FUMARATE]
2,Compound NOT metabolized,CC[C@H](C)C(=O)O[C@H]1CCC=C2C=C[C@H](C)[C@H](CC[C@@H]3C[C@@H](O)CC(=O)O3)[C@H]21 [MEVASTATIN]

# Conditions: human gut metagenome, 24 h, 2 µM
row,Bacterial Biotransformation,Structure (SMILES)
1,Compound NOT metabolized,CN1CCC(=C2c3ccccc3CC(=O)c3sccc32)CC1.O=C(O)/C=C/C(=O)O [KETOTIFEN FUMARATE]
2,Compound NOT metabolized,CC[C@H](C)C(=O)O[C@H]1CCC=C2C=C[C@H](C)[C@H](CC[C@@H]3C[C@@H](O)CC(=O)O3)[C@H]21 [MEVASTATIN]

# Conditions: human gut metagenome, 24 h, 2 µM
# Remark: another data set of the same source
row,Bacterial Biotransformation,Structure (SMILES)
1,Compound metabolized,CN1CCC(=C2c3ccccc3CC(=O)c3sccc32)CC1.O=C(O)/C=C/C(=O)O [KETOTIFEN FUMARATE]
2,Compound metabolized,CC[C@H](C)C(=O)O[C@H]1CCC=C2C=C[C@H](C)[C@H](CC[C@@H]3C[C@@H](O)CC(=O)O3)[C@H]21 [MEVASTATIN]

# Conditions: human gut metagenome, 24 h, 2 µM
# Remark: another data set of the same source
row,Bacterial Biotransformation,Structure (SMILES)
1,Compound metabolized,CN1CCC(=C2c3ccccc3CC(=O)c3sccc32)CC1.O=C(O)/C=C/C(=O)O [KETOTIFEN FUMARATE]
2,Compound metabolized,CC[C@H](C)C(=O)O[C@H]1CCC=C2C=C[C@H](C)[C@H](CC[C@@H]3C[C@@H](O)CC(=O)O3)[C@H]21 [MEVASTATIN]

# Conditions: human gut metagenome, 24 h, 2 µM
# Remark: another data set of the same source
row,Bacterial Biotransformation,Structure (SMILES)
1,Compound metabolized,CN1CCC(=C2c3ccccc3CC(=O)c3sccc32)CC1.O=C(O)/C=C/C(=O)O [KETOTIFEN FUMARATE]
2,Compound metabolized,CC[C@H](C)C(=O)O[C@H]1CCC=C2C=C[C@H](C)[C@H](CC[C@@H]3C[C@@H](O)CC(=O)O3)[C@H]21 [MEVASTATIN]

# Conditions: human gut metagenome, 24 h, 2 µM
# Remark: another data set of the same source
row,Bacterial Biotransformation,Structure (SMILES)
1,Compound NOT metabolized,CN1CCC(=C2c3ccccc3CC(=O)c3sccc32)CC1.O=C(O)/C=C/C(=O)O [KETOTIFEN FUMARATE]
2,Compound NOT metabolized,CC[C@H](C)C(=O)O[C@H]1CCC=C2C=C[C@H](C)[C@H](CC[C@@H]3C[C@@H](O)CC(=O)O3)[C@H]21 [MEVASTATIN]

# Conditions: human gut metagenome, 24 h, 2 µM
# Remark: another data set of the same source
row,Bacterial Biotransformation,Structure (SMILES)
1,Compound metabolized,CN1CCC(=C2c3ccccc3CC(=O)c3sccc32)CC1.O=C(O)/C=C/C(=O)O [KETOTIFEN FUMARATE]
2,Compound metabolized,CC[C@H](C)C(=O)O[C@H]1CCC=C2C=C[C@H](C)[C@H](CC[C@@H]3C[C@@H](O)CC(=O)O3)[C@H]21 [MEVASTATIN]

# Conditions: human gut metagenome, 24 h, 2 µM
# Remark: another data set of the same source
row,Bacterial Biotransformation,Structure (SMILES)
1,Compound metabolized,CN1CCC(=C2c3ccccc3CC(=O)c3sccc32)CC1.O=C(O)/C=C/C(=O)O [KETOTIFEN FUMARATE]
2,Compound metabolized,CC[C@H](C)C(=O)O[C@H]1CCC=C2C=C[C@H](C)[C@H](CC[C@@H]3C[C@@H](O)CC(=O)O3)[C@H]21 [MEVASTATIN]
